Measurements from paper PMC7876048, “Mutant-selective degradation by BRAF-targeting PROTACs” (Nature Communications, 2021).
Entries after “also recorded” stand apart in the source; their conditions may differ.

Tests used:
[1] = test system: SK-MEL-28 cells (Class 1, BRAF^V600E); test: Cell proliferation (MTS) assay; format: cell-based
[2] = test system: MEK and ERK phosphorylation (SK-MEL-28 cells); test: MEK and ERK phosphorylation by immunoblot in SK-MEL-28 cells; format: cell-based
Experimental: (§1) Cells were plated in 6 well dishes (5 × 10^5–8 × 10^5 cells) and allowed to attach overnight. […] The plates were then placed on ice and washed 1x with chilled PBS and lysed in buffer containing 25 mM Tris-HCl [pH 7.4], 0.25% sodium deoxycholate, 150 mM NaCl, 1% Triton X-100, supplemented with protease inhibitors (1x Roche protease inhibitor cocktail) and phosphatase inhibitors (10 mM NaF, 1 mM Na3OV4, and 20 mM β-glycerophosphate). Lysates were then cleared at 21,000 g for 10 min at 4 °C. Protein concentrations of the supernatants were then quantified using a Pierce BCA Protein Assay. 12–40 µg of protein were separated using a gradient (4–20%) Criterion TGX precast gel and transferred unto a nitrocellulose membrane. The membranes were then blocked in 5% non-fat milk in TBST (Tris-buffered Saline with Tween 20) for 1 h before probing with the indicated primary antibody overnight. Membranes were imaged using Bio-Rad Image Lab software using ECL prime detection reagent (GE Healthcare, RPN2232 or ThermoScientific, 34095).
(§2) Western blot data was quantified by using the band feature in Image Lab, and values were averaged and analyzed in GraphPad Prism. DC50 and DMAX values were fitted using a three parameter [inhibitor] versus response and reported directly from the Prism output. Mean ± SD and unpaired t-tests were performed in GraphPad Prism.

BRAF (L597V) = target: T1, BRAF (L597V) (Homo sapiens, UniProt P15056, L597V); test: Radiolabeled kinase assay (Reaction Biology); format: biochemical
T1 construct: purchased Reaction Biology Corps
Experimental: (§3) Kinase assays were performed by Reaction Biology Corps by their protocol in duplicate using Km amounts of ATP calculated for each kinase.

CRAF = CRAF (Homo sapiens, UniProt P04049); test: Radiolabeled kinase assay (Reaction Biology); format: biochemical
Experimental: as §3

BRAF (V600K) = target: T2, BRAF (V600K) (Homo sapiens, UniProt P15056, V600K); test: Radiolabeled kinase assay (Reaction Biology); format: biochemical
T2 construct: purchased Reaction Biology Corps
Experimental: as §3

BRAF (G469A) = target: T3, BRAF (G469A) (Homo sapiens, UniProt P15056, G469A); test: Radiolabeled kinase assay (Reaction Biology); format: biochemical
T3 construct: purchased Reaction Biology Corps
Experimental: as §3

BRAF (G464V) = target: T4, BRAF (G464V) (Homo sapiens, UniProt P15056, G464V); test: Radiolabeled kinase assay (Reaction Biology); format: biochemical
T4 construct: purchased Reaction Biology Corps
Experimental: as §3

[3] = test system: BRAF^WT : Cullin-2 association (NIH3T3 cells); test: V5-BRAF immunoprecipitation, Cullin 2 association; format: cell-based; details: MEK inhibitor (1 µM cobimetinib, 2 h) pretreated NIH3T3 cells
Experimental: Doxycycline-induced NIH3T3 cells or 293 T-Rex cells that express indicated BRAF isoform were seeded in 10 cm dishes overnight. […] Cells were then placed on ice, washed with ice-cold 1X PBS, and lysed in 500 µL modified 1X lysis buffer (50 mM Tris-HCl, pH 7.4, 0.15 M NaCl, 1 mM EDTA, 1% NP40, 10% glycerol) containing 5 mM 1,10-phenanthroline monohydrate, 10 mM N-ethylmaleimide, 20 µM PR-619, and 1X protease inhibitor cocktail (Roche). Lysates were spun down at 14,000 × g at 4 °C for 10 min. Equal amounts of lysate was aliquoted onto 20 µL (bed volume) of anti-V5-beads (Sigma, A7345). V5-containing proteins were immunoprecipitated from lysates for 2 h at 4 °C with gentle rotation, after which samples were spun down at 6000 × g at 4 °C for 2 min and the beads were washed 4 times with DPBS. Beads were resuspended in 1X lithium dodecyl sulfate (LDS) sample buffer containing 5% 2-mercaptoethanol (ß-ME). Immunoprecipitated protein was eluted off the beads by heating at 95 °C for 5 min and the supernatant was run on an SDS-PAGE gel and evaluated for the presence of immunoprecipitated V5-tagged proteins, as well as Cullin 2. Input refers to the normalized input lysate loaded onto V5-sepharose beads.

BRAF V600E = BRAF V600E (Homo sapiens, UniProt P15056, V600E); test: Elisa kinase inhibition assay (Carna Biosciences); format: biochemical; set-up: purchased Carna Biosciences; details: Km ATP, duplicate
Experimental: (§4) Kinase assays were performed by Carna Biosciences by their protocol in duplicate using Km amounts of ATP calculated for each kinase.

BRAF WT = target: T5, BRAF WT (Homo sapiens, UniProt P15056); test: Elisa kinase inhibition assay (Carna Biosciences); format: biochemical; details: Km ATP, duplicate
T5 construct: purchased Carna Biosciences
Experimental: as §4

[4] = target: T6, BRAF^G469A (SK-MEL-246 cells, Class 2) (Homo sapiens, UniProt P15056, G469A); test: BRAF degradation by immunoblot in SK-MEL-246 cells; format: cell-based
T6 construct: endogenous in cells; host or cells: SK-MEL-246
Experimental: as §1, §2

[5] = target: T7, BRAF^G466V (CAL-12-T cells, homozygous, Class 3) (Homo sapiens, UniProt P15056, G466V); test: BRAF degradation by immunoblot in CAL-12-T cells; format: cell-based
T7 construct: endogenous in cells; host or cells: CAL-12-T
Experimental: as §1, §2

[6] = target: T8, BRAF^WT (NCI-H23 cells, K-RAS^G12C) (Homo sapiens, UniProt P15056); test: BRAF^WT degradation by immunoblot in NCI-H23 cells; format: cell-based
T8 construct: endogenous in cells; host or cells: NCI-H23
Experimental: as §1, §2

[7] = Body weight in SK-MEL-246 efficacy study; format: in vivo, mice; details: either dose (50 mg/kg BID, 100 mg/kg QD)
Experimental: (§5) 10 million SK-MEL-246 cells were subcutaneously implanted in female nu/nu mice. The tumor volumes and mice weights were measured twice a week after the implantation. […] All studies were performed in compliance with institutional guidelines under an Institutional Animal Care and Use Committee (IACUC) approved protocol. Investigators were not blinded when assessing the outcome of the in vivo experiments.

[8] = test system: SK-MEL-246 melanoma xenograft (Class 2, BRAF^G469A); test: SK-MEL-246 xenograft efficacy study; format: in vivo, mice
Experimental: as §5

[9] = test system: SK-MEL-239 C4 cells (BRAF^WT/BRAF-p61^V600E); test: Cell proliferation (MTS) assay; format: cell-based; details: 5 days
[10] = test system: BRAF (SK-MEL-239 cells, heterozygous BRAF^V600E); test: BRAF degradation by immunoblot in SK-MEL-239 cells; format: cell-based
Experimental: as §1, §2

T8 sequence (P15056 2-766, stated change not applied): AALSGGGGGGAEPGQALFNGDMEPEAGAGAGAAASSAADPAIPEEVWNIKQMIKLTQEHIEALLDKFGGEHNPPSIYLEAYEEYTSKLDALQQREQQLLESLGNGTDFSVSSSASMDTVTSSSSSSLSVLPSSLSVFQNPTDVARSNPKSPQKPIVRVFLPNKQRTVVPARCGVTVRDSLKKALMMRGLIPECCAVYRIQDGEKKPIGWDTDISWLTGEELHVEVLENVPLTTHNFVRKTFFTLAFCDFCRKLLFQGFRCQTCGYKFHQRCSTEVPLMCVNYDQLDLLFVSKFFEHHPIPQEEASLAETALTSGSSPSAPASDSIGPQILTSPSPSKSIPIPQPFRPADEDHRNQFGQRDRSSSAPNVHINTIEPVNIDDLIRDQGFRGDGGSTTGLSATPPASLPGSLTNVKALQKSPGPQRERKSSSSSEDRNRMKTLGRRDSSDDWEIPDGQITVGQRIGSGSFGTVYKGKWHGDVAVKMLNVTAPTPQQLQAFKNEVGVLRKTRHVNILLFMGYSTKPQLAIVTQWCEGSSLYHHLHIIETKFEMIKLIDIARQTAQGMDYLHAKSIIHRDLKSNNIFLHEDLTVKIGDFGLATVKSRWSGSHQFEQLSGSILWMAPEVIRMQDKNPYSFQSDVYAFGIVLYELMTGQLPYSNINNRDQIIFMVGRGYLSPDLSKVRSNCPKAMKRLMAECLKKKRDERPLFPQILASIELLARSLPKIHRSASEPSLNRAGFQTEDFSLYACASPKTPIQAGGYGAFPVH
T6 sequence (P15056 whole entry G469A): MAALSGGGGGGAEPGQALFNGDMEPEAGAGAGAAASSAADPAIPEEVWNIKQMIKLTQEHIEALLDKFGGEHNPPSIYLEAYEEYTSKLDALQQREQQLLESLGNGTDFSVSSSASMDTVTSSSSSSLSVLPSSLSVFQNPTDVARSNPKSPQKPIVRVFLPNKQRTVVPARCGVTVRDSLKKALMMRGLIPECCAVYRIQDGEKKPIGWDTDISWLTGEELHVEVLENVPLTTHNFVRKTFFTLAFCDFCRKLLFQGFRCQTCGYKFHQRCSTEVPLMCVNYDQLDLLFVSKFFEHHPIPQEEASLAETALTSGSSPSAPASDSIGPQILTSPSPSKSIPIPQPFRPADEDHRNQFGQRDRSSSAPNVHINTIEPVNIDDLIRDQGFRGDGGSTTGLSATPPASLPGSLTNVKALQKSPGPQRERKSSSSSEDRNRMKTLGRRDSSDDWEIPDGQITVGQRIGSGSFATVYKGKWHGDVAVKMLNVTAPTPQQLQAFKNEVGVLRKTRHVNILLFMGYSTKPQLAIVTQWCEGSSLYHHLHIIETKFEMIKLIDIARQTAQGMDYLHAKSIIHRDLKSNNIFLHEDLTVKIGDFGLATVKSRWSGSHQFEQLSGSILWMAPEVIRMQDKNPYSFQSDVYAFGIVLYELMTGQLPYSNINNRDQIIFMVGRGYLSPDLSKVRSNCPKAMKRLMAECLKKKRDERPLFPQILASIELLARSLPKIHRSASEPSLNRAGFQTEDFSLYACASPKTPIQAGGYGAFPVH
T7 sequence (P15056 whole entry G466V): as the sequence (P15056 whole entry G469A) above, with G466V, A469G counted along it
T1 sequence (P15056 whole entry L597V): as the sequence (P15056 whole entry G469A) above, with A469G, L597V counted along it
Chain of CRAF (P04049 whole entry): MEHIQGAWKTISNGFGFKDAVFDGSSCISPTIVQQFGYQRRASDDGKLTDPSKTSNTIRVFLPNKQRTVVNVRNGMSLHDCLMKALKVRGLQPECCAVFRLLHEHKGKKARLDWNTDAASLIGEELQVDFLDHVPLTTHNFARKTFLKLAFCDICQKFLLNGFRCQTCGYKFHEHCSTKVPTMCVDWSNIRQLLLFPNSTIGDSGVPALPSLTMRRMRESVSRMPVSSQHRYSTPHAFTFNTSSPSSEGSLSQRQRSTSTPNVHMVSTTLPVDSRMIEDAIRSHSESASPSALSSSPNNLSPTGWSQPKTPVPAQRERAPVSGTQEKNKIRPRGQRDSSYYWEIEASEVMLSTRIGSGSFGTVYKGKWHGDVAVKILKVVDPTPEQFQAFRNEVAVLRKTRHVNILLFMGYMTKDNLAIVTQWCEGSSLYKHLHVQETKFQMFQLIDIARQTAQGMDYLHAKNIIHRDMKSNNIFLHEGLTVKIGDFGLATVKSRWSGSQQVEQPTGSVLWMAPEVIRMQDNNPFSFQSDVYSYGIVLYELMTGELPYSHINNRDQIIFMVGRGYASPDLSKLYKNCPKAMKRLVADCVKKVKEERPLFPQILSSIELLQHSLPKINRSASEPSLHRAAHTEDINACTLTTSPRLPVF
Chain of BRAF V600E (P15056 whole entry V600E): as the sequence (P15056 whole entry G469A) above, with A469G, V600E counted along it
T3 sequence (P15056 whole entry G469A): as the sequence (P15056 whole entry G469A) above
T4 sequence (P15056 whole entry G464V): as the sequence (P15056 whole entry G469A) above, with G464V, A469G counted along it
T5 sequence (P15056 whole entry): as the sequence (P15056 whole entry G469A) above, with A469G counted along it
T2 sequence (P15056 whole entry V600K): as the sequence (P15056 whole entry G469A) above, with A469G, V600K counted along it

EC50 ([1]; Homo sapiens, 72 h, 3 days, read-out: EC50, cell growth): 37 ± 1.2 nM
IC50 (BRAF (L597V)): 16 nM
IC50 (CRAF): 37.6 nM
IC50 (BRAF (V600K)): 0.49 nM
IC50 (BRAF (G469A)): 0.98 nM
IC50 (BRAF (G464V)): 9.18 nM
IC50 (BRAF V600E): 24.4 nM
IC50 (BRAF WT): 39.2 nM
DC50 [4]: 15 nM
Dmax [4]: > 95%
DC50 [5]: 23 nM
Dmax [5]: > 90%
BRAF^WT degradation ([6]; MRTX849 pre-treatment 2 h): 20%
BRAF^WT degradation ([6]; PROTAC alone): 50%
EC50 ([9]; 120 h, read-out: EC50, cell growth): 218 nM
SMILES: CCCS(=O)(=O)Nc1ccc(F)c(C(=O)c2c[nH]c3ncc(-c4ccc(N5CCN(CC(=O)NC(C(=O)N6CC(O)CC6C(=O)NCc6ccc(-c7scnc7C)cc6)C(C)(C)C)CC5)cc4)cc23)c1F (stereo not drawn) [SJF-0628]
increase in potency of SJF-0628 (cell growth) ([1]; vs vemurafenib and SJF-0661): 6 fold
concentration giving maximal inhibition of MEK and ERK phosphorylation / maximal suppression of p-ERK [2]: 10 nM
increase in potency of the PROTAC over epimer SJF-0661 (p-ERK suppression) [2]: 10 fold
increase in PROTAC-induced Cullin-2 association with BRAF^WT [3]: 4 fold
body weight loss [7]: did not observe a significant body weight loss
effect on tumor growth ([8]; once daily 100 mg/kg i.p.): minor response
effect on tumor growth ([8]; twice daily 50 mg/kg i.p., within 10 days, 50 mg/kg): tumor regression; also recorded: tumor shrinkage beyond the initial tumor size
decrease in cell growth [9]: ~ 80%
BRAF degradation [10]: minimal BRAF degradation
